Test results: ChEMBL document CHEMBL4602664, “Chrysosporazines F-M: P-Glycoprotein Inhibitory Phenylpropanoid Piperazines from an Australian Marine Fish Derived Fungus, Chrysosporium sp. CMB-F294” (J Nat Prod, 2020)

How the values were obtained:
[1] = test system: Candida albicans; assay: Antifungal activity against Candida albicans ATCC 10231 assessed as reduction in microbial growth after 48 hrs by spectrophotometric method; assay type: functional, organism-based; settings: ATCC 10231, 48 h
[2] = test system: Escherichia coli; assay: Antibacterial activity against Escherichia coli ATCC 11775 assessed as reduction in microbial growth after 24 hrs by spectrophotometric method; assay type: functional, organism-based; settings: ATCC 11775, 24 h
[3] = test system: SW-620; assay: Antiproliferative activity against human SW620 cells assessed as reduction in cell viability after 48 hrs by MTT assay; assay type: functional, cell-based; settings: SW-620, 48 h
[4] = test system: Staphylococcus aureus; assay: Antibacterial activity against Staphylococcus aureus ATCC 25923 assessed as reduction in microbial growth after 24 hrs by spectrophotometric method; assay type: functional, organism-based; settings: ATCC 25923, 24 h
[5] = test system: SW620/AD300; assay: Antiproliferative activity against human SW620/AD300 cells assessed as reduction in cell viability after 48 hrs by MTT assay; assay type: functional, cell-based; settings: SW620/AD300, 48 h

Row | SMILES | IC50 [3] [µM] | IC50 [5] [µM] | IC50 [1] [µM] | IC50 [2] [µM] | IC50 [4] [µM]
1 | COc1cc(C[C@H]2CN3C(=O)[C@@]4(O[C@H]4c4ccccc4)[C@H](c4cc(OC)c5c(c4)OCO5)[C@H]3CN2C(C)=O)cc2c1OCO2 | > 30 | – | > 30 | > 30 | > 30
2 | COc1cc(C[C@H]2CN3C[C@@H]4[C@@H](c5ccccc5)c5c(cc6c(c5OC)OCO6)[C@@H]4[C@H]3CN2C(C)=O)cc2c1OCO2 | > 30 | – | > 30 | > 30 | > 30
3 | COc1cc([C@H]2/C(=C\c3ccccc3)C(=O)N3C[C@H](Cc4ccccc4)N(C(C)=O)C[C@H]23)cc2c1OCO2 | > 30 | – | > 30 | > 30 | > 30
4 | COc1c2c(cc3c1[C@H](c1ccccc1)[C@@]1(O)C(=O)N4C[C@H](Cc5ccccc5)N(C(C)=O)C[C@@H]4[C@@H]31)OCO2 | > 30 | – | > 30 | > 30 | > 30
5 | COc1cccc2c1C(=O)c1c(O)c3c(c(O)c1C2=O)C[C@@](O)(C(=O)CO)C[C@@H]3O[C@H]1C[C@H](N)[C@H](O)[C@H](C)O1 [DOXORUBICIN] | 0.11 | 4.9 | – | – | –
6 | COc1cc(C[C@H]2CN3C[C@]4(O)[C@@H](c5ccccc5)c5c(cc6c(c5OC)OCO6)[C@@H]4[C@H]3CN2C(C)=O)cc2c1OCO2 | > 30 | – | > 30 | > 30 | > 30
7 | COc1ccc(CCN(C)CCCC(C#N)(c2ccc(OC)c(OC)c2)C(C)C)cc1OC (stereo not given) | – | > 30 | – | – | –

Further lines, with some results ahead:

Row | IC50 [3] [µM] | IC50 [5] [µM] | SMILES | IC50 [1] [µM] | IC50 [2] [µM] | IC50 [4] [µM]
8 | > 30 | – | COc1c2c(cc3c1[C@H](c1ccccc1)[C@H]1C(=O)N4C[C@H](Cc5ccccc5)N(C(C)=O)C[C@@H]4[C@@H]31)OCO2 | > 30 | > 30 | > 30
9 | > 30 | – | COc1cc([C@@H]2[C@H]3CN(C(C)=O)[C@@H](Cc4ccccc4)CN3C(=O)[C@@]23O[C@H]3c2ccccc2)cc2c1OCO2 | > 30 | > 30 | > 30
10 | > 30 | – | COc1cc(C[C@H]2CN3C(=O)/C(=C/c4ccccc4)[C@H](c4cc(OC)c5c(c4)OCO5)[C@H]3CN2C(C)=O)cc2c1OCO2 | > 30 | > 30 | > 30
